Measured values as given in article PMC12386606, “Evaluation of the In Vitro Blood–Brain Barrier Transport of Ferula persica L. Bioactive Compounds” (International Journal of Molecular Sciences, 2025).
Read-outs that look alike come from different tables or passages of the source.

How the values were obtained:
[1] = system: SH-SY5Y cells; test: Neuroprotection against H2O2, L-glutamate and Aβ1-42 in differentiated SH-SY5Y cells (MTT); settings: 24 h
Description: To investigate the neuroprotective potential of AerExt or RootExt, oxidative damage (H2O2), excitotoxic stress (L-glutamate), and Aβ1-42 toxicity were induced in cells and evaluated as described by [58]. Briefly, SH-SY5Y cells were plated as described above, and 24 h after cell attachment, cells were pre-treated with non-toxic concentrations of AerExt or RootExt (40 μg mL^−1 for AerExt; 20 μg mL^−1 for RootExt) for 24 h. In the control group, DMEM/F12 cell medium supplemented with 1% FBS, 100 U mL^−1 penicillin, 100 μg mL^−1 streptomycin, 250 ng mL^−1 antimycotic, and 0.4% ethanol was used. The next day, cells were incubated with either cell medium alone (control), H2O2 (65 μM), L-glutamate (23 mM), or Aβ1-42 (30 μM) for 24 h. Cell viability was assessed by MTT assay at the end of the experiments. All the experiments were repeated three times, and a T-test was applied between the treated and control conditions considering statistically significant differences when p < 0.05.

[2] = PAMPA
Description: (§1) The permeability of bioactive compounds from AerExt and RootExt across the BBB was assessed using the PAMPA-BBB assay, following the methodology described by [11]. Firstly, the BBB solution was prepared by dissolving 8 mg of PBL and 4 mg of cholesterol in 600 μL of n-dodecane. The initial donor solution was prepared by mixing 1 mL of AerExt or RootExt (at 10 mg mL^−1 in EtOH) with 1 mL of buffer (PBS, pH = 7.4, 10 mM). The filter membrane of the donor plate was coated with 5 μL of BBB solution. The acceptor plate was filled with 350 μL of buffer, and the donor plate was carefully placed on top of the acceptor plate to form a “sandwich-like” assembly. Subsequently, 350 μL of the donor solution was added to the donor plate, which was then covered and incubated at 37 °C for 4 h in the dark. After the incubation time, 300 μL of the solution was collected from each plate, transferred into separate vials, and evaporated using a SpeedVac system at 40 °C under 13 mbar pressure. The dried acceptor and donor solutions were dissolved in 50 μL of pure EtOH before being subjected to HPLC-Q-TOF-MS/MS and GC-Q-TOF-MS analysis. Permeability (Pe) across the PAMPA-BBB of the bioactive compound was calculated according to Equation (1) [54], with modifications in concentration rates.Pe = −ln[1 − CA(t)/Cequilibrium]/(A × (1/VD + 1/VA) × t)(1)
(§2) Cequilibrium was calculated according to Equation (2):Cequilibrium = [CD(t) × VD + CA(t) × VA]/(VD + VA)(2)
(§3) The HPLC-MS and GC-MS chromatograms were processed using the Agilent Mass Hunter Qualitative software (version B.10.0) to verify the retention time and exact mass of the compounds previously reported by us [25] and to extract their peak area to calculate the BBB permeability.

[3] = oil/water partition coefficient; Table 1; ref PubChem; cited from earlier work
[4] = system: HBMEC cells; test: Blood–brain barrier transport study in HBMEC Transwell monolayer; settings: for AerExt Te (%) ± SD 2 h / AerExt Te (%) ± SD 4 h / AerExt Te (%) ± SD 24 h: AerExt 40 µg mL^−1 apical; for AerExt Te (%) ± SD 2 h / AerExt Te (%) ± SD 4 h / AerExt Te (%) ± SD 24 h / RootExt Te (%) ± SD 2 h / RootExt Te (%) ± SD 4 h / RootExt Te (%) ± SD 24 h: n.q. = not quantified in the basolateral compartment; for RootExt Te (%) ± SD 2 h / RootExt Te (%) ± SD 4 h / RootExt Te (%) ± SD 24 h: RootExt 20 µg mL^−1 apical
Description: After the toxicity evaluation, the HBMEC cell line was also used as a simplified in vitro model of the BBB endothelium. Cells were seeded at a density of 1.6 × 10^5 cells/cm^2 in 12-well Transwell® plates (Corning Costar Corp., Corning, USA) with a pore diameter of 0.4 μm, pre-coated with type I rat tail collagen (100 μg mL^−1) [55]. The culture medium was renewed every 2 days until a monolayer cell structure was formed (see Supplementary Figure S2), and transport experiments were initiated after 10 days. In transport experiments, the medium in the apical (upper) compartment of the Transwell system was removed, and 0.5 mL of AerExt or RootExt at a concentration of 40 μg mL^−1 and 20 μg mL^−1, respectively, was added to these compartments (applied in duplicate). Also, a medium containing 0.4% (v/v) ethanol was used as control group. The basolateral (lower) compartments were filled with 1.5 mL of fresh culture medium. The cells were incubated under these conditions for 2, 4, and 24 h.
At the end of the incubation periods, media samples were collected from both chambers and lyophilized using a freeze-drying system from Martin Christ (Osterode am Harz, Germany). The samples were stored at −80 °C until analysis. The collected samples were subjected to chemical analyses to evaluate the ability of bioactive compounds contained in the extracts to pass through the cell monolayer.
The transport efficiency (Te) of bioactive substances was calculated based on Equation (3), described by [56]:Te (%) = CLower/CUpper × 100(3)
This calculation was performed to understand whether the compound crosses the cell layer and how efficiently it is transported.
For this purpose, 0.2 mL of cold water (H2O) was added to the samples, and the samples were vortexed for 10 s. Then, 0.8 mL of cold methanol was added and vortexed again for 10 s. Then, the mixture was centrifuged at 14,000 rpm for 5 min, and the supernatant was carefully transferred to a 1.5 mL Eppendorf tube and dried in a SpeedVac device at 40 °C and 13 bar pressure. Finally, the dried samples were resuspended in 25 μL of pure ethanol for their subsequent analysis.
For HPLC-Q-TOF MS/MS analysis, aliquots of 2 μL were injected into an HPLC model 1290 coupled to a Q-TOF series 6540 (Agilent Technologies, Waldbronn, Germany). For GC-Q-TOF MS analysis, aliquots of 1 μL were injected with a split ratio of 1:10 into a GC model 7890B coupled to a Q-TOF series 7200 (Agilent Technologies, Waldbronn, Germany). The HPLC-MS and GC-MS chromatograms were processed using the Agilent Mass Hunter Qualitative software (version B.10.0) to verify the retention time and exact mass of the compounds previously reported by us [25] and to extract their peak area to calculate the BBB permeability.

[5] = Parallel artificial membrane permeability assay for the blood–brain barrier (PAMPA-BBB); settings: for AerExt log Pe: compound within AerExt donor solution; for AerExt log Pe / RootExt log Pe: 37 °C, 4 h, PBS pH 7.4, n.q. = not quantified in the acceptor plate; for RootExt log Pe: compound within RootExt donor solution
Description: as §1, §2, §3

Row | SMILES | log p [3] | AerExt Te (%) ± SD 2 h [4] | AerExt Te (%) ± SD 4 h [4] | AerExt Te (%) ± SD 24 h [4] | RootExt log Pe [5] | other results
1 | OO [H2O2] |  |  |  |  |  | cell viability after neurotoxic agent, compared with control ([1]; H2O2 65 µM): 48%
2 | Cc1nccc2c1[nH]c1ccccc12 [Harman] | 3.6 |  |  |  |  | AerExt Cross BBB Potential [2]: ++ (key: –: not quantified in acceptor; +: log Pe < −6.5; ++: −6.5 < log Pe < −5.5; +++: −5.5 < log Pe < −4.5)
3 | COc1c(O)cc2oc(-c3ccc(O[C@@H]4O[C@H](CO)[C@@H](O)[C@H](O)[C@H]4O)cc3)cc(=O)c2c1O [Hispidulin 4′-glucoside] |  |  |  |  |  | AerExt Cross BBB Potential [2]: + (key: –: not quantified in acceptor; +: log Pe < −6.5; ++: −6.5 < log Pe < −5.5; +++: −5.5 < log Pe < −4.5); AerExt log Pe ([2]; pH 7.4): −6.14
4 | N[C@@H](CCC(=O)O)C(=O)O [L-glutamate] |  |  |  |  |  | viability at 23000 µM ([1]; Homo sapiens, read-out: cell viability after neurotoxic agent, compared with control): 47%
5 | COc1ccc(-c2cc(=O)c3c(OC)c(OC)c(OC)c(OC)c3o2)cc1OC [Nobiletin] | 3.0 | n.q. | n.q. | n.q. |  | crossing of the HBMEC-BBB ([4]; AerExt 40 µg mL^−1 / RootExt 20 µg mL^−1, 2, 4, 24 h): could not cross the HBMEC-BBB; RootExt Te (%) ± SD 2 h [4]: n.q.; RootExt Te (%) ± SD 4 h [4]: n.q.; RootExt Te (%) ± SD 24 h [4]: n.q.; Papp at 4 h ([5]; PAMPA, pH 7.4): 49 ×10⁻⁶ cm/s
6 | CC(C)[C@@H]1CC[C@@]2(C)[C@H](O)CC[C@](C)(O)[C@H]2[C@@H]1O[C@@H]1O[C@H](CO)[C@@H](O)[C@H](O)[C@H]1O [Ophiopogonoside A] | 0.4 |  |  |  | n.q. | RootExt Te (%) ± SD 2 h [4]: n.q.; RootExt Te (%) ± SD 4 h [4]: n.q.; RootExt Te (%) ± SD 24 h [4]: 66.0 ± 3.2%; AerExt log Pe [5]: n.q.
7 | COc1cc([C@@H]2OC[C@@H]3[C@H]2CO[C@H]3c2cc(OC)c(O[C@@H]3O[C@H](CO)[C@@H](O)[C@H](O)[C@H]3O)c(OC)c2)cc(OC)c1O[C@@H]1O[C@H](CO)[C@@H](O)[C@H](O)[C@H]1O [Syringaresinol diglucoside] | −1.4 | n.q. | n.q. | n.q. | n.q. | AerExt log Pe [5]: n.q.
8 | C/C=C\c1cc(OC)c(OC)cc1OC [β-asarone] | 3.0 | 7.5 ± 2.0% | 15.0 ± 7.3% | 15.5 ± 1.0% | n.q. | 
